Columns and labels:
CHO-WBL cells = experiment: Chromosomal aberrations in CHO-WBL cells; format: cell-based; settings: with and without metabolic activation
healthy individuals = experiment: Study MPKF: SE scores and C-SSRS; design: species or system human; settings: in vivo
Experimental: Those increases from baseline were observed between 0.5 to 4 hours after dosing. […] The other scores remained relatively stable in comparison to baseline across the sessions.

[1] = tested on: participants with severe PTSD; experiment: MAPP1 Phase 3: Sheehan Disability Scale (SDS); format: in vivo, human
Source text: FIG. 36 and FIG. 37 show the time course of improvement in Clinician Administered PTSD Scale for DSM-5 (CAPS-5) total severity score versus placebo. Each show a treatment difference between MDMA and placebo after 3 medication sessions with psychological intervention. […] Between the second and third treatment sessions, the difference between the groups appeared to continue to increase in both studies. The primary efficacy measure was change from baseline in the CAPS-5 total severity score at 18 weeks, which was evaluated 2 months after the final dosing session. The CAPS-5 is a 30-item, clinician-rated scale used to assess severity of PTSD symptoms and diagnostic status according to DSM-5 criteria, as described herein. Scores on the CAPS 5 range from 0 to 80, with higher scores indicating more severe PTSD symptoms. In both studies, a secondary efficacy measure was change from baseline in Sheehan Disability Scale (SDS) mean item scores at 18 weeks. The modified SDS is a 3-item, clinician-rated scale measuring the degree of functional impairment in work, family, and social life. Scores on the SDS mean items range from 0 to 10, with higher scores indicating more functional impairment. In these studies, the efficacy assessments were administered by blinded independent raters 18 to 30 days after medication sessions 1 and 2.
MAPP1 was a Phase 3 randomized, placebo-controlled, 2-arm, double-blind, multi-site study conducted to investigate the efficacy and safety of MDMA-AT in participants with severe PTSD. This study is also discussed in Mitchell et. al., Nature Medicine 2021, 27, 1025-1033. This study included 3 experimental sessions of therapy combined with either MDMA·HCl or placebo. During Experimental Session 1, participants received a split dose of 120 mg (80 mg+40 mg).
Participants received an escalated split dose of 180 mg during Experimental Sessions 2 and 3 unless there were tolerability issues or the participant declined. The primary outcome measure, the CAPS-5, evaluated changes in PTSD symptom severity and the secondary outcome measure, the SDS, evaluated changes in functional impairment. Both measures were assessed by a blinded centralized language-specific IR pool.
The de jure estimand of treatment efficacy was used to determine the effect of MDMA-AT on SDS total score.

[2] = tested on: MDMA-AT trial participants (MAPP1 and MAPP2); experiment: MPLONG long-term follow-up: CAPS-5 durability, responder analysis, relapse; format: in vivo, human
Source text: MPLONG is an observational long-term follow-up study for MDMA-AT trial participants intended to provide data on treatment durability as measured by the CAPS-5 and Sheehan Disability Scale (SDS). Participants who elect to enroll in MPLONG completed a LTFU visit at least 6 months following their completion of the parent study. MPLONG opened for enrollment 8 months following the last subject visit of the MAPP1 trial and MAPP1 participants entered MPLONG unblinded to their treatment assignment. Enrollees from the second Phase 3 trial MAPP2, however, complete LTFU with blinding maintained.
A sensitivity analysis was conducted to determine whether there was a detectable difference in the observed trend dependent on the time elapsed since the parent study (Table 47 (Table 47 (Table 47). There was no observable impact of the time window, as durability was maintained in both those with LFTU within a year and those with LTFU greater than 12 months after study termination.

OATP1B3 = OATP1B3 (Homo sapiens, UniProt Q9NPD5); experiment: Transporter inhibition, OATP1B3
OATP1B3, sequence (Q9NPD5 whole entry): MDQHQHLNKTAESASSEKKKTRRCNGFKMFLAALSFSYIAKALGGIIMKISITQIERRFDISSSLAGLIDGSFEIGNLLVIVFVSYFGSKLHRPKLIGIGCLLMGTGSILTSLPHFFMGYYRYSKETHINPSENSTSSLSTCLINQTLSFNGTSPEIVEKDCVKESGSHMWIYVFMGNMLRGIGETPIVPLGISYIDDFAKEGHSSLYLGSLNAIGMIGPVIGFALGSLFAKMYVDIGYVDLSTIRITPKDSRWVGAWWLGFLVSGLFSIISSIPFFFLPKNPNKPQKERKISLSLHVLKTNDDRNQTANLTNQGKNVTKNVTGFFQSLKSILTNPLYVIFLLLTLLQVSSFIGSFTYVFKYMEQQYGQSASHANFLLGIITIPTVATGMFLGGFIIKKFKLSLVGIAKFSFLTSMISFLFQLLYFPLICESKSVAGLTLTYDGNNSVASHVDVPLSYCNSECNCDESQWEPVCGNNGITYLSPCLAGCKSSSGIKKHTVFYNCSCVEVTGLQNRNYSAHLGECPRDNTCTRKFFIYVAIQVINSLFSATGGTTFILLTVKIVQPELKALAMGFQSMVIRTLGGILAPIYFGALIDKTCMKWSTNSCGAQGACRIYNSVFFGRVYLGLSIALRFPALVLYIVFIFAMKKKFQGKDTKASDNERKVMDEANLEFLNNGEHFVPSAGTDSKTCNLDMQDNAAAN

rats = experiment: 28-day repeat-dose toxicity, weekly oral, rats; settings: any dose
[3] = MAPP1, mITT, Baseline (Visit 3)
[4] = MAPP1, mITT, Baseline to Visit 19
[5] = MAPP1, mITT, Visit 19 (Primary Endpoint)
[6] = end of treatment, 42 patients (study not given)
[7] = LTFU visit, MAPP1 and MAPP2, loss of diagnosis at study termination and ≥10 point increase and meeting PTSD diagnostic criteria at LTFU
[8] = LTFU visit, MAPP1 and MAPP2, remission at study termination and >11 CAPS-5 TSS at LTFU
[9] = LTFU visit, MAPP1 and MAPP2, ≤11 CAPS-5 TSS from BL not meeting PTSD diagnostic criteria at LTFU
[10] = LTFU visit, MAPP1 and MAPP2, ≥10 point reduction in CAPS-5 TSS from BL and ≥10 point increase from study termination at LTFU
[11] = LTFU visit, MAPP1 and MAPP2, ≥10 pt reduction in CAPS-5 TSS from BL and not meeting PTSD diagnostic criteria at LTFU
[12] = LTFU visit, MAPP1 and MAPP2, ≥10 pt reduction in CAPS-5 TSS from BL at study termination and LTFU
[13] = MAPP1 and MAPP2, LTFU 6-12 Months
[14] = MAPP1 and MAPP2, LTFU >12 Months
[15] = MAPP1 and MAPP2, Study Termination (last available assessment in parent study)
[16] = MAPP2 participants only, Long Term Follow Up Study Visit 1
[17] = MPLONG, MAPP1 and MAPP2 participants, Visit 1
[18] = MPLONG, MAPP1 and MAPP2 participants, parent study Baseline
[19] = MPLONG, MAPP1 and MAPP2 participants, parent study Visit 8
[20] = MPLONG, MAPP1 and MAPP2 participants, parent study Visit 13
[21] = MPLONG, MAPP1 and MAPP2 participants, parent study Visit 19
[22] = MPLONG, MAPP2 participants only, parent study Baseline
[23] = MPLONG, MAPP2 participants only, parent study Visit 8
[24] = MPLONG, MAPP2 participants only, parent study Visit 13
[25] = MPLONG, MAPP2 participants only, parent study Visit 19

CNC(C)Cc1ccc2c(c1)OCO2 (stereo not shown) [MDMA, 3,4-methylenedioxymethamphetamine]
chromosomal aberrations (CHO-WBL cells): no signs of chromosomal aberrations | C-SSRS scores (healthy individuals): No abnormal C-SSRS scores | SDS Total Score CFB, LSMean ([1]; MAPP1, mITT, MMRM, Visit 19): −3.15 | SDS Total Score CFB, LSMean for Treatment Difference ([1]; MAPP1, mITT, MMRM, vs placebo with therapy, Visit 19): −1.36 | SDS Total Score, Mean [1, 3]: 6.8 | SDS Total Score, Median [1, 3]: 6.8 | SDS Total Score CFB, Mean [1, 4]: −3.1 | SDS Total Score CFB, Median [1, 4]: −2.5 | SDS Total Score, Mean ([1]; MAPP1, mITT, Visit 8): 5.0 | SDS Total Score, Median ([1]; MAPP1, mITT, Visit 8): 5.0 | SDS Total Score, Mean ([1]; MAPP1, mITT, Visit 13): 4.1 | SDS Total Score, Median ([1]; MAPP1, mITT, Visit 13): 4.7 | SDS Total Score, Mean [1, 5]: 3.8 | SDS Total Score, Median [1, 5]: 3.4 | reduction in SDS total scores ([1]; MAPP1, MMRM, de jure estimand): −3.15 | SDS Remission (SDS mean item score < 3) [1, 6]: (42.9) % | SDS Remission (SDS mean item score < 3), n [1, 6]: 18 | SDS Responder (4 point or greater reduction from baseline SDS mean item score) [1, 6]: (38.1) % | SDS Responder (4 point or greater reduction from baseline SDS mean item score), n [1, 6]: 16 | Relapse after Loss of Diagnosis, Does not meet criteria, % [2, 7]: (93.8) % | Relapse after Loss of Diagnosis, Meets criteria, % [2, 7]: (6.2) % | Relapse of Remission, Does not meet criteria, % [2, 8]: (95.4) % | Relapse of Remission, Meets criteria, % [2, 8]: (4.6) % | Durable Remission, Does not meet criteria, % [2, 9]: (40.0) % | Durable Remission, Meets criteria, % [2, 9]: (60.0) % | Relapse after Treatment Response, Does not meet criteria, % [2, 10]: (93.8) % | Relapse after Treatment Response, Meets criteria, % [2, 10]: (6.2) % | Durable Loss of Diagnosis, Does not meet criteria, % [2, 11]: (16.9) % | Durable Loss of Diagnosis, Meets criteria, % [2, 11]: (83.1) % | Durable Treatment Response, Does not meet criteria, % [2, 12]: (10.8) % | Durable Treatment Response, Meets criteria, % [2, 12]: (89.2) % | loss of diagnosis at LTFU ([2]; MAPP1 and MAPP2): 83.1% | met the definition of treatment response at LTFU ([2]; MAPP1 and MAPP2): 89.2% | relapse following remission ([2]; MAPP1 and MAPP2): 4.6% | relapse following treatment response or loss of diagnosis ([2]; MAPP1 and MAPP2): 12.3% | remission at LTFU ([2]; MAPP1 and MAPP2): 60% | CAPS-5 Total Severity Score, Actual, Mean [2, 13]: 11.9 | CAPS-5 Total Severity Score, Actual, Median [2, 13]: 9.0 | CAPS-5 Total Severity Score, Change from Study Termination, Mean [2, 13]: −3.7 | CAPS-5 Total Severity Score, Change from Study Termination, Median [2, 13]: −2.5 | CAPS-5 Total Severity Score, Actual, Mean [2, 14]: 11.2 | CAPS-5 Total Severity Score, Actual, Median [2, 14]: 6.0 | CAPS-5 Total Severity Score, Change from Study Termination, Mean [2, 14]: −5.9 | CAPS-5 Total Severity Score, Change from Study Termination, Median [2, 14]: −5.0 | CAPS-5 Total Severity Score, Actual, Mean [2, 15]: 16.4 | CAPS-5 Total Severity Score, Actual, Median [2, 15]: 15.0 | mean change from baseline (CFB) in CAPS-5 scores at LTFU ([2]; MAPP2 parent study): −28.7 | CAPS-5 Total Severity Score, Actual, Mean [2, 16]: 10.7 | CAPS-5 Total Severity Score, Actual, Median [2, 16]: 8.5 | CAPS-5 Total Severity Score, CFB, Mean [2, 16]: −28.7 | CAPS-5 Total Severity Score, CFB, Median [2, 16]: −30.5 | CAPS-5 Total Severity Score, Actual, Mean [2, 17]: 11.5 | CAPS-5 Total Severity Score, Actual, Median [2, 17]: 8.0 | CAPS-5 Total Severity Score, CFB, Mean [2, 17]: −29.2 | CAPS-5 Total Severity Score, CFB, Median [2, 17]: −31.0 | CAPS-5 Total Severity Score, Actual, Mean [2, 18]: 40.8 | CAPS-5 Total Severity Score, Actual, Median [2, 18]: 40.0 | CAPS-5 Total Severity Score, Actual, Mean [2, 19]: 29.5 | CAPS-5 Total Severity Score, Actual, Median [2, 19]: 31.0 | CAPS-5 Total Severity Score, CFB, Mean [2, 19]: −11.3 | CAPS-5 Total Severity Score, CFB, Median [2, 19]: −12.0 | CAPS-5 Total Severity Score, Actual, Mean [2, 20]: 22.0 | CAPS-5 Total Severity Score, Actual, Median [2, 20]: 23.0 | CAPS-5 Total Severity Score, CFB, Mean [2, 20]: −18.8 | CAPS-5 Total Severity Score, CFB, Median [2, 20]: −19.0 | CAPS-5 Total Severity Score, Actual, Mean [2, 21]: 15.9 | CAPS-5 Total Severity Score, Actual, Median [2, 21]: 14.0 | CAPS-5 Total Severity Score, CFB, Mean [2, 21]: −24.8 | CAPS-5 Total Severity Score, CFB, Median [2, 21]: −27.0 | CAPS-5 Total Severity Score, Actual, Mean [2, 22]: 39.4 | CAPS-5 Total Severity Score, Actual, Median [2, 22]: 38.5 | CAPS-5 Total Severity Score, Actual, Mean [2, 23]: 28.1 | CAPS-5 Total Severity Score, Actual, Median [2, 23]: 30.5 | CAPS-5 Total Severity Score, CFB, Mean [2, 23]: −11.3 | CAPS-5 Total Severity Score, CFB, Median [2, 23]: −12.0 | CAPS-5 Total Severity Score, Actual, Mean [2, 24]: 19.7 | CAPS-5 Total Severity Score, Actual, Median [2, 24]: 18.0 | CAPS-5 Total Severity Score, CFB, Mean [2, 24]: −19.8 | CAPS-5 Total Severity Score, CFB, Median [2, 24]: −22.0 | CAPS-5 Total Severity Score, Actual, Mean [2, 25]: 14.8 | CAPS-5 Total Severity Score, Actual, Median [2, 25]: 12.0 | CAPS-5 Total Severity Score, CFB, Mean [2, 25]: −24.5 | CAPS-5 Total Severity Score, CFB, Median [2, 25]: −27.0 | inhibition of OATP1B3 (OATP1B3): not an inhibitor | neurohistopathology of the brain (rats): No morphologic changes

— patent US20250134855A1, “CO[…] AND METHODS OF USING SAME” (LYKOS THERAPEUTICS, INC., priority 2022, published 2025)
